Results from PMC7395068, “The evolution of strategies to minimise the risk of human drug-induced liver injury (DILI) in drug discovery and development” (Archives of Toxicology, 2020).
Read-outs that look alike come from different tables or passages of the source.

Experiments:
[1] = Plasma free fraction (fu) and unbound Cmax (Cmax,u); type: in vitro ADME, human; conditions: human
Description: The prediction of DILI severity was evaluated further using the 3D combined HCI assays using plasma-free fraction. The majority of fu values were obtained from literature, when unavailable in-house prediction was utilised. Unbound plasma Cmax concentrations (Cmax,u) were derived by multiplying total plasma Cmax with the corresponding free fraction (fu) for each compound.

hLiMTs [2] = tested on: hLiMTs
HepaRG spheroids [3] = tested on: HepaRG spheroids
[4] = in vivo; cited from earlier work
[5] = tested on: primary human hepatocytes, NIH3T3 fibroblasts, BSEP, CYP3A4; conditions: cited from earlier work
HepG2 cells [6] = conditions: cited from earlier work
HepG2 cells [7] = conditions: cited from earlier work; remark: listed apart in the source
human hepatocytes = conditions: cited from earlier work
[8] = tested on: THLE or HepG2 cells, isolated mitochondria, BSEP; conditions: cited from earlier work
PHH [9] = conditions: cited from earlier work
hLiMTs [10] = conditions: cited from earlier work
[11] = human, in vivo; cited from earlier work
[12] = cited from earlier work
hu-MPCC = conditions: cited from earlier work
[13] = in vivo; cited from earlier work; remark: listed apart in the source
RMPCC's = conditions: cited from earlier work
hLiMTs [14] = experiment: Combined HCI (HCS) and cellular ATP 3D assay in hLiMTs; conditions: Homo sapiens
HepaRG spheroids [15] = experiment: Combined HCI (HCS) and cellular ATP 3D assay in HepaRG spheroids; conditions: Homo sapiens, HepaRG
rBsep = tested on: rBsep; set-up: method as in Dawson 2012; conditions: In vitro Assay; ref Dawson 2012; cited from earlier work
HepG2 = tested on: HepG2; set-up: method as in Albrecht 2019; conditions: In vitro Assay; ref Albrecht 2019; cited from earlier work
PHH [16] = conditions: In vitro Assay; ref Albrecht 2019; cited from earlier work
[17] = tested on: isolated mouse liver mitochondria; conditions: In vitro Assay; ref Porceddu 2012; cited from earlier work
[18] = In vitro Assay, ref Khetani 2012

Structure (SMILES): O=P1(N(CCCl)CCCl)NCCCO1 (centres unmarked) [cyclophosphamide, reference compound]
- Human plasma Cmax,u [1]: 114.400 µM
- DILI prediction hLiMTs (HCS-MEC) (hLiMTs [2]): +VE (key: +VE: MEC < 25 × Cmax.tot cut-off)
- hLiMTs <10 uM All (hLiMTs [2]): -ve
- hLiMTs <100x Avg Cmaxu ATP (hLiMTs [2]; human): +ve (key: +ve: <100x Avg Cmaxu)
- hLiMTs <100x Avg Cmaxu All (hLiMTs [2]; human): +ve (key: +ve: <100x Avg Cmaxu)
- hLiMTs <100x Avg Cmaxu HCS (hLiMTs [2]; human): +ve (key: +ve: <100x Avg Cmaxu)
- hLiMTs Cmax max All (hLiMTs [2]; human): +ve
- hLiMTs Cmax min All (hLiMTs [2]; human): -ve
- DILI prediction HepaRG spheroids (HCS-MEC) (HepaRG spheroids [3]): +VE (key: +VE: MEC < 25 × Cmax.tot cut-off)
- HepaRG <10 uM All (HepaRG spheroids [3]): -ve
- HepaRG <100x Avg Cmaxu ATP (HepaRG spheroids [3]; human): +ve (key: +ve: <100x Avg Cmaxu)
- HepaRG <100x Avg Cmaxu All (HepaRG spheroids [3]; human): +ve (key: +ve: <100x Avg Cmaxu)
- HepaRG <100x Avg Cmaxu HCS (HepaRG spheroids [3]; human): +ve (key: +ve: <100x Avg Cmaxu)
- HepaRG Cmax max All (HepaRG spheroids [3]; human): +ve
- HepaRG Cmax min All (HepaRG spheroids [3]; human): -ve
- DILI +VE (5-8), DILI -VE (-4) [4]: +VE
- DILI severity category (Chen et al. [2016]) [4]: Less
- Cellular toxicity (3T3 cells) [5]: -VE
- DILI in vitro assay prediction, Schadt (2015) [5]: -VE
- GSH adduct HML [5]: -VE
- Hepatocyte cellular toxicity [5]: -VE
- MitoTox 3T3 [5]: -VE
- TDI CYP3A4 [5]: -VE
- hBSEP inhibition [5]: -VE
- DILI in vitro assay prediction, O'Brien (2006) (HepG2 cells [6]): +VE (key: +VE: lowest HCI endpoint IC50 (or in the absence of dose–response < 100 µM) < 30 × total human plasma exposure levels (Cmax.tot))
- Structural based (HCI) (HepG2 cells [6]): +VE
- DILI in vitro assay prediction, Tolosa (2012) (HepG2 cells [7]): -VE
- Structural based (HCI) (HepG2 cells [7]): +VE
- DILI in vitro assay prediction, Xu (2008) (human hepatocytes): -VE
- Structural based (HCI) (human hepatocytes): -VE
- Partition Hybrid HRM Score [8]: -VE
- Partition Hybrid HRM Score ≥4, Aleo (2019) [8]: -VE
- Partition Hybrid HRM Score ≥8, Aleo (2019) [8]: -VE
- Ro2 Hybrid HRM Score [8]: -VE
- Rule of Two hybrid HRM Score ≥3, Aleo (2019) [8]: -VE
- Rule of Two hybrid HRM Score ≥8, Aleo (2019) [8]: -VE
- PHH ATP <100uM (PHH [9]): -VE
- PHH/100uM, Proctor (2017) (PHH [9]): -VE
- hLiMTs ATP <100uM (hLiMTs [10]): -VE
- hLiMTs/100uM, Proctor (2017) (hLiMTs [10]): -VE
- Cmax [11]: 143 µM
- Assigned DILI category ([12]; in vivo): 2
- HMPCC's (hu-MPCC): +VE
- DILI Score (FDA) (1-8) [13]: 5
- RMPCC's (RMPCC's): +VE
- AC50 (hLiMTs [14]; read-out: ATP endpoint AC50): 906 µM
- minimal effective concentration (hLiMTs [14]; read-out: ATP endpoint MEC): 613 µM
- AC50 (hLiMTs [14]; read-out: HCS endpoint AC50): 992 µM
- minimal effective concentration (hLiMTs [14]; read-out: HCS endpoint MEC): 236 µM
- AC50 (HepaRG spheroids [15]; read-out: ATP endpoint AC50): 419 µM
- minimal effective concentration (HepaRG spheroids [15]; read-out: ATP endpoint MEC): 229 µM
- AC50 (HepaRG spheroids [15]; read-out: HCS endpoint AC50): 1860 µM
- minimal effective concentration (HepaRG spheroids [15]; read-out: HCS endpoint MEC): 340 µM

Structure (SMILES): CCC(=O)O[C@H]1[C@H](O[C@@H]2[C@@H](C)[C@H](O[C@H]3C[C@@](C)(OC)[C@@H](O)[C@H](C)O3)[C@@H](C)C(=O)O[C@H](CC)[C@@](C)(O)[C@H](O)[C@@H](C)C(=O)[C@H](C)C[C@@]2(C)O)O[C@H](C)C[C@@H]1N(C)C [erythromycin estolate]
- Inhibition of rBsep cutoff<1& cmax u>.2 (rBsep): +VE
- Inhibition of rBsep cutoff<3 (rBsep): +VE
- Structural based (HCI) (human hepatocytes; In vitro Assay, ref Xu 2008): +VE
- Partition Hybrid HRM Score ([8]; In vitro Assay, ref Aleo 2019): +VE
- Ro2 Hybrid HRM Score ([8]; In vitro Assay, ref Aleo 2019): +VE
- In vivo DILI ([12]; ref Aleo 2019): +VE
- In vivo DILI ([12]; ref Dawson 2012): +VE
- In vivo DILI ([12]; ref Xu 2008): +VE

Structure (SMILES): CCCCC1C(=O)N(c2ccccc2)N(c2ccccc2)C1=O [phenylbutazone]
- Cytotoxicity HepG2 48 hrs (HepG2): +VE
- Structural based (HCI) (HepG2 cells [6]; In vitro Assay, ref O'Brien 2006): +VE
- In vivo DILI ([12]; in vivo): +VE
- Cytotoxicity PHH 48 hrs (PHH [16]): +VE
- HMPCC's (hu-MPCC; [18]): +VE
- in vitro data EC2<=1x Cmax [17]: +VE
- RMPCC's (RMPCC's; [18]): +VE
